The conditions of data set [1]: cited from earlier work.
Details of data set [2]: species or system human. To be noted: in vivo. From the text:
COAST was a 6-month, double-blind, block-randomized placebo-controlled study involving 81 healthy participants between 18 and 65 years old. Participant recruitment and assessment commenced on December 2017 and ended on December 2018. Recruitment was achieved through local media and advertisement at the Waterford Institute of Technology, local fitness centers, and with employees of an industry based in Waterford, Ireland. […] Every participant enrolled in the study provided written informed consent prior to commencement. The study protocol was approved May 2017 by the Research Ethics Committees of the Waterford Institute of Technology (Waterford, Ireland) and the HSE, South Eastern Area (University Hospital Waterford, Waterford, Ireland). Industrial Orgánica, S.A. de C.V., the manufacturer of the nutritional supplements, had no role in the design of the study, the collection and analysis of the data, or the preparation of manuscripts. All vouch for the accuracy of the data and the fidelity of the study to the protocol. COAST was a five-arm intervention study, where participants were randomly allocated, with equal probability and separately for men and women, to one of four active intervention groups or to a placebo group. Label claims of the nutritional content in the intervention supplements were as follows: Group 1, L (10 mg)+MZ (10 mg)+Z (2 mg) provided in one capsule; Group 2, L (10 mg)+MZ (10 mg)+Z (2 mg) provided in two capsules; […] Therefore, it was decided to present the dosages of the formulations as stated by label claim. […] Serum carotenoid concentrations were analyzed as the total concentrations (μmol/L) for each of the carotenoids in serum. […] Outcome variables were recorded at baseline and at 6 months. […] Calibration lines used, as well as lower and upper limits of quantification (LLOQ and ULOQ respectively), are as previously performed. Serum carotenoid analysis was completed in sixteen independent batches, with a maximum intra-day precision of 7.28%, measured as RSD, and an inter-day precision of 3.16% (RSD). […]

The conditions of data set [3]: hens; cited from earlier work.

We go through four compounds from patent publication US20220023249A1, “Carotenoid Formulation For Increased Bioavailability” (Industrial Organica, SA de CV, priority 2020, published 2022).

Like-named read-outs stand apart in the source and are kept apart here.

Consider `CC1=C[C@H](O)CC(C)(C)[C@H]1/C=C/C(C)=C/C=C/C(C)=C/C=C/C=C(C)/C=C/C=C(C)/C=C/C1=C(C)C[C@@H](O)CC1(C)C` [L, (3R,3′R,6R)-lutein, reference compound], for which the entries for the “increase of serum L” value in data set [1] (AREDS 2 study) and in data set [1] (CREST AMD study) were 200% and 304%, respectively.
In the case of `CC(=O)O[C@@H]1CC(C)=C(/C=C/C(C)=C/C=C/C(C)=C/C=C/C=C(C)/C=C/C=C(C)/C=C/[C@H]2C(C)=C[C@H](OC(C)=O)CC2(C)C)C(C)(C)C1` [Ld, (3R,3′R,6R)-lutein diacetate], in data set [2], the “serum response compared to free carotenoid as crystals” value is given as “remained similar”. In addition, the “serum response compared to group supplemented with free L” value in data set [1] (previous clinical trial) is “slightly higher and not statistically different”. In addition, the “MPOD improvements compared to free L supplementation” value in data set [1] (previous report) is “superior and significant response”. Moreover, the “deposition of carotenoid in egg yolk compared to free form” value (from here on “deposition … compared to free form”) in data set [3] is “similar”.
Take `CC(=O)OC1CC(C)=C(C=CC(C)=CC=CC(C)=CC=CC=C(C)C=CC=C(C)C=CC2=C(C)CC(OC(C)=O)CC2(C)C)C(C)(C)C1` (stereo not drawn) [MZd, meso-zeaxanthin diacetate]: the “serum response compared to free carotenoid as crystals” value in data set [2] was “significantly greater”. Besides, the “deposition … compared to free form” value in data set [3] is “greater capability”.
Consider `CC(=O)O[C@@H]1CC(C)=C(/C=C/C(C)=C/C=C/C(C)=C/C=C/C=C(C)/C=C/C=C(C)/C=C/C2=C(C)C[C@@H](OC(C)=O)CC2(C)C)C(C)(C)C1` [Zd, (3R,3′R)-zeaxanthin diacetate], for which the “serum response compared to free carotenoid as crystals” value in data set [2] was “significantly greater”. The “deposition … compared to free form” value in data set [3] is on record as “greater capability”.
